This note sets out measurements from PMC11391541, “Target-Directed Dynamic Combinatorial Chemistry Affords Binders of Mycobacterium tuberculosis IspE” (ACS Omega, 2024).

Converted amounts (≈) assume the structure as drawn.

In one data set the test system is EcK12. The experiment in a line: E. coli growth inhibition, wild-type strain K12. The settings on record: Escherichia coli, 18 h, LB medium, read-out: EcK12 %inh. At 50 μM. The data set is classed as cell-based, Escherichia coli.
A further data set can be described thus: in vitro. The settings on record: human, HepG2 CC50, HepG2, 48 h, MTT.
The test system of another data set is EcTolC. The experiment in a line: microbe, parasite or virus in culture. The settings on record: Escherichia coli, 18 h, LB medium, read-out: EcTolC %inh. At 50 μM. It is filed as cell-based.
The target of data set [1] is T1, MtbIspE (Mycobacterium tuberculosis, UniProt P9WKG7). The experiment in a line: MtbIspE binding study via MicroScale Thermophoresis (MST). The settings on record: MST, 20 μM ligand, 200 nM MtbIspE, triplicate; qualitative.
T1 sequence (P9WKG7 whole entry): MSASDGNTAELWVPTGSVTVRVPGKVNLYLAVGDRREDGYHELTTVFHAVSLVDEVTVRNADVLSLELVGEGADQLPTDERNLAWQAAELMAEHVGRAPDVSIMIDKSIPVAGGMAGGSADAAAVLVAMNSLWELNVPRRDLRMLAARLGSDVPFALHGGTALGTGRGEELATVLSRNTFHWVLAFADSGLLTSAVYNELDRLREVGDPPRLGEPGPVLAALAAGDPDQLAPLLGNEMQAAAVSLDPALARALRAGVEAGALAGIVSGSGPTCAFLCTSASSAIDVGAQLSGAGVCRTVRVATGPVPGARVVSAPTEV
A short description of a further data set: physchem. The settings on record: aqueous with cosolvent or surfactant or cyclodextrin, kinetic from dmso stock.
For the next data set, the system named is MtbH37Rv. It is filed as cell-based, Mycobacterium tuberculosis.
In data set [2] the target is T1, MtbIspE. The experiment in a line: MtbIspE binding study via thermal shift assay. The settings on record: read-out: MtbIspE ΔTm at 20 μM.
Data set [3] can be described thus: solubility in M. tuberculosis 7H9 growth medium. The data set is classed as physicochemical. The settings on record: Mtb 7H9 growth medium. On the procedure: Prior to biological evaluation of the tdDCC hits, we tested their solubility in a standard buffer as well as in M. tuberculosis 7H9 growth medium. […] Regrettably, with 3.3 μM the least soluble compound is E1, making our most amplified and promising compound unsuitable for biological evaluation. We assessed the solubility in Mtb growth medium given that it is a complex, nutrient-rich environment with a distinct solubility profile. However, the trend continued, only seven hits are soluble at 8 μM or above, the remaining five compounds, including E1, were not eligible for antitubercular activity testing (Table 1).
Determination of in vitro anti-tubercular activity and solubility in 7H9 medium Anti-tubercular tests were performed as previously described .1 In brief, 7H9 complete medium (BD Difco; Becton Dickinson, Maryland,USA) supplemented with 10% OADC (BD), 0.2% glycerol, and 0.05% Tween80 as previously described ,3 was used to culture Mycobacterium tuberculosis (Mtb) strain H37Rv (ATCC 25618) carrying a mCherry -expressing plasmid (pCherry10 ).4 Cultures were harvested at mid-log phase and frozen in aliquots at – 80 °C. Prior to testing aliquots were thawed followed by centrifugation and the pellet was resuspended in 7H9 medium with 10% OADC (without glycerol and Tween80). This was further thoroughly resuspended by passing it through a syringe with a 26 -gauge needle to avoid clumping of the bacteria. 2×10^5 CFU (colony forming units) were then cultured in a total volume of 100 μl culture medium (triplicates) to test the non-precipitating compounds for the anti-tubercular activity at the concentrations indicated. For these assays, 96-well flat clear bottom black polystyrene microplates (Corning® CellBIND®, Merck, New York, USA) wer e used. Each plate had Rifampicin (at 1 μg/ml and 0.1 μg/ml) (National Reference Center, Borstel) as a reference compound. Plates were sealed with an air -permeable membrane (Porvair Sciences, Wrexham, UK) in a 37 °C incubator with mild agitation (TiMix5, Edmund Bühler, Germany). The activity of compounds was determined after 7 days by measuring the bacterial growth as relative light units (RLU) from the fluorescence intensity obtained at an excitation wavelength of 575 nm and an emission wavelength of 635 n m in a microplate reader (Synergy 2, BioTek Instruments, Vermont, USA). Two independent experiments (each in triplicates) were performed, and all values were normalized to untreated control sample (100%) in each experiment.
To obtain information regarding the toxicity of our compounds, their impact on the viability of human cells was investigated. HepG2 cells (2x10^4 cells per well) were seeded in 96 -well, flat-bottomed culture plates in 100 µL culture medium (DMEM containing 10% fetal calve serum, 1% penicillin -streptomycin). Twenty-four hours after seeding the cells, medium was removed and replaced by medium containing test compounds in a final DMSO concentration of 1%. Compounds were tested in duplicates at a single concentration or, for CC50 determination, at 8 concentrations that were prepared via 2 -fold serial dilutions in 1% DMSO/medium. Epirubicin and doxorubicin were used as positive controls in serial dilutions starting from 10 µM, and rifampicin was used as a negative control (at 100 µM). The living cell mass was determined 48 h after treatment with compounds by adding 0.1 volumes of 3 -(4,5-dimethylthiazol-2-yl)-2,5-diphenyltetrazolium bromide (MTT) solution (5 mg/mL sterile PBS) (Sigma, St. Louis, MO) to the wells. After incubating the cells for 30 min at 37 °C (atmosphere containing 5% CO2), medium was removed and MTT crystals were dissolved in 75 µL of a solution containing 10% SDS and 0.5% acetic acid in DMSO. The optical density (OD) of the samples was determined photometrically at 570 nm in a PHERAstar Omega plate reader (BMG labtech, Ortenberg, Germany). To obtain percent viability for each sample, their ODs were related to those of DMSO controls. […]

For a further data set, the system named is HepG2 cells. The settings on record: read-out: HepG2 CC50; HepG2, 48 h, MTT.
The target in data set [4] is T1, MtbIspE. The experiment in a line: target-directed dynamic combinatorial chemistry (tdDCC), amplification of acylhydrazones in protein-templated vs blank DCL (HPLC-MS/MS, UV 310 nm). It is filed as binding. The settings on record: DCL-3, 24 h, 40 mol % MtbIspE; I1 and K1 integrated as one cluster. The protocol: In this study, we used MtbIspE as target protein and the reversible reaction of hydrazides and aldehydes to form dynamic combinatorial libraries (DCLs) of acylhydrazones. […] To accelerate the reaction at neutral pH, aniline was used as nucleophilic catalyst activating the aldehydes.[2],[4],[19] We analyzed the protein’s effect on the DCLs by comparing HPLC-MS/MS data of blank vs protein-templated (PT) experiments. The experiments spanned 3 days, with periodic sampling (every 2 h, followed by two samples per day after 8 h). The addition of NaOH to raise the pH and halt the reactions ensured the sample composition was preserved for analysis.[19] Templated experiments were conducted in duplicate, and the protein was denatured and removed prior to HPLC-MS/MS analysis.
The tdDCC hits and thus potential MtbIspE binders are amplified in the PT experiment compared to the blank experiment. The first step in the analysis of DCLs is the determination of the equilibrium since the amplification factors need to be calculated when the concentration of products is stable. To determine the evolution of the possible products, it is important to measure the characteristic UV absorbance of the acylhydrazones linker (310 nm) during the HPLC-MS/MS run. The resulting UV peaks are assigned to each product using the MS data (Figures S3–S6). The sum of all peak areas is normalized to 100% in order to obtain the respective relative peak area (RPA) for each product. The RPA values represent relative concentrations, determined at each time point of the blank experiment until the values stabilize. […] However, the rest of the compounds are out of range, making a visual inspection difficult. […] The other three libraries behaved in the same way, reaching equilibrium within 24 h and also maintained stable concentrations beyond (Figures S7–S9). To determine the tdDCC hits, we compared the RPAs of the PT experiments to the blanks at 24 h and set a threshold of at least 50% increase in compound formation. In total, 11 acylhydrazones passed our criteria, with amplification factors ranging from […] to 15.5, qualifying them for resynthesis and further evaluation (Figure 3). During the analysis of chromatograms, challenges arose concerning product identification. Some compound peaks were not neatly separated, forcing us to consider them in clusters, others presented two peaks, likely due to isomers, and were considered separately in our evaluation. Lastly, some compounds were detected by MS, but their respective UV signal interfered with the injection peak or was too low for integration (<1%), both in the blank and PT experiments. Consequently, we excluded these compounds from the analysis (Figure S3–S6).
To a well of a 24-well plate, containing Tris buffer (pH 7.0) were added hydrazides (300 μM each, in DMSO), aldehydes (100 μM each, in DMSO), aniline (20 mM, in DMSO), the protein MtbIspE (25 or 40 μM in Tris buffer at pH 7.0), and an additional amount of DMSO to reach a final concentration of 5% in the DCL with 0.5 mL of end-volume. The DCL was allowed to mix on a plate shaker at room temperature and was frequently monitored via LCMS-MS. For analysis, 30 μL of the corresponding library was mixed with 42 μL acetonitrile and 3 μL of NaOH (1 M), the mixture was centrifuged, and the supernatant was used for the analysis. PT experiments were run in duplicates and the protein was omitted for the blank experiments.
High-resolution mass (HRMS) of final products was determined by HPLC-MS/MS using a Thermo Scientific Q Exactive Focus Orbitrap LC -MS/MS system. All compounds were analyzed for purity by LCMS on Acquity UPLC-SQD system from Waters with a gradient elution of Water (Formic acid 0.1%)/Acetonitrile on an HSS - T3 column (2.1 x 50 mm, Waters), 1.8 µm, at 30°C, PDA detection between 240 -320 nm, and MS detection by simultaneous ES+/ES- ionization in a mass range of 150 -800. The flow is set to 0.9 ml/min, and the […]
gradient time is 1.5 min. […]

For the molecule `CN1CCN(CC(=O)N/N=C/c2cc(Cl)ccc2O)CC1` [C1, (E)-N′-(5-Chloro-2-hydroxybenzylidene)-2-(4-methylpiperazin-1-yl)acetohydrazide], the inhibition at 50 µM with EcK12 is less than 10%; with EcTolC, 17.1 ± 0.1%. Besides, in the data set “in vitro”, the CC50 is greater than 50 µM. The “MtbIspE binding at 20 μM” value at MtbIspE [1] was “consistently demonstrated binding across all measurements and Yes”. The solubility at 5 min in the data set “physchem” (solubility 5% DMSO in PBS) was greater than 800 µM; in “physchem” (solubility in PBS with 5% DMSO) it was roughly 1000 µM (≈ 311 µg/mL). Besides, the “MtbH37Rv MIC90” value in the data set with MtbH37Rv is “no inh. at max. sol”. In addition, the ΔTm at 20 µM at MtbIspE [2] is less than 0.3 °C. The solubility in data set [3] (M. tuberculosis 7H9 growth medium, plasma or biological fluid, kinetic from dmso stock) stood at 16 µM.
As for `O=C(N/N=C/c1cc(Cl)ccc1O)c1cccc(Cl)c1` [K1, (E)-3-Chloro-N′-(5-chloro-2-hydroxybenzylidene)benzohydrazide], the inhibition at 50 µM in the data set on EcK12 is less than 10%. In addition, the figures for the CC50 in “in vitro” and in the data set on HepG2 cells were less than 10 µM and 7 ± 3 µM, respectively. The “MtbIspE binding at 20 μM” value on MtbIspE [1] was “consistently demonstrated binding across all measurements and Yes”. This molecule registered a solubility at 5 min in “physchem” (solubility 5% DMSO in PBS) of 25 ± 4 µM (≈ 7.73 µg/mL). In addition, the ΔTm at 20 µM on MtbIspE [2] stood at 0.7 °C. Moreover, the “Amplification factors (DCL-3)” value at MtbIspE [4] amounted to 2.0. For the same molecule, in data set [3], the “solubility in 7H9” value is listed as “insoluble”.
Turning to `CC(C)Cc1cc(C(=O)N/N=C/c2cc(Cl)ccc2O)[nH]n1` [D1, (E)-N′-(5-Chloro-2-hydroxybenzylidene)-3-isobutyl-1H-pyrazole-5-carbohydrazide], the inhibition at 50 µM in the data set on EcK12 was 11 ± 4%; with EcTolC, 28 ± 11%. The results for the CC50 in “in vitro” and in the data set with HepG2 cells were less than 10 µM and 7.9 ± 0.8 µM, respectively. Besides, on MtbIspE [1], the “MtbIspE binding at 20 μM” value was “No”. Besides, the concentration in solution in “physchem” (solubility 5% DMSO in PBS) (solubility at 5 min) came to 22 ± 9 µM (≈ 7.06 µg/mL). The ΔTm at 20 µM at MtbIspE [2] was less than 0.3 °C. In data set [3], the “solubility in 7H9” value was “insoluble”.

As usually defined, the solubility is how much of the substance goes into solution per volume. As a reminder, the ΔTm is the shift of the melting midpoint relative to a reference.
